Test results as given in paper PMC9401487 (Clinical Cancer Research, 2021).
Read-outs that look alike come from different tables or passages of the source.

What was measured:
pRAD50 = pRAD50 IHC H-score in paired tumor biopsies; type: in vivo, human
[1] = test system: TP53-mutant triple-negative breast cancer PDX; details: cited from earlier work
[2] = Clinical plasma pharmacokinetics of ceralasertib; type: in vivo; details: human, oral
ATR = details: read-out: IC90 for ATR inhibition in cells; cited from earlier work

## C[C@@H]1COCCN1c1cc(C2([S@](C)(=N)=O)CC2)nc(-c2cc[nH]c3nccc2-3)n1 [ceralasertib]
pRAD50; all four evaluable paired tumor biopsies
  pRAD50 expression following treatment: clear increases in pRAD50 expression
pRAD50; cohort 7 patient, baseline ATM 20%, H-scores of 20–80
  Increase in pRAD50 expression: 400%
[1]; carboplatin dosed concurrently with ceralasertib on day 2 or 3
  Tumor control: growth inhibition rather than tumor control
[1]; ceralasertib dosed 2 days after carboplatin
  Antitumor efficacy: tumor control
[1]; ceralasertib dosed 3 days after carboplatin
  Antitumor efficacy: tumor regression
[2]; mean half-life, administered alone
  half-life: 8.14 to 10.6 h
[2]; mean half-life, in combination with carboplatin
  half-life: 5.14 to 7.22 h
[2]; median tmax, in combination with carboplatin
  Tmax: 1.05 to 1.07 h
[2]; median tmax, single dose, alone, across dose groups
  Tmax: 1 to 1.03 h
[2]; terminal plasma half-life, abstract summary
  half-life: 8 to 11 h
[2]; tmax, abstract summary
  Tmax: ~1 h
ATR
  IC90: […]
